Assay results reported in patent US8697730B2, “5-lipoxygenase activating protein (FLAP) inhibitor” (Panmira Pharmaceuticals, LLC, priority 2007, dated 2014).

Legend:
[1] = tested on: urinary LTE4 production; experiment: Phase 1 study, urinary LTE4; format: in vivo, human; details: clinical trial summary
Procedure: (§1) Pharmacodynamics: Whole blood ionophore-stimulated leukotriene LTB4 and urinary LTE4 production are assayed by ELISA and mass spectrometry, respectively.
(§2) Obtain pre-dose fasting blood samples for hematology determinations. Obtain pre-dose fasting blood samples for serum chemistry determinations. Obtain pre-dose blood samples (5 mL EDTA and 4 mL heparinized) for baseline PK and LTB4. Collect ‘spot’ urine prior to study drug administration for baseline (pre-dose) LTE4. Administer study drug. […] Collect blood samples (2 mL heparinized) for LTB4 at 0.5, 1, 2, 3, 4, 6, 8, and 12 hours. Collect urine for LTE4 for the following separate intervals: 0-3, 3-6, 6-9, and 9-12 hours. For twice daily dosing group (if conducted): administer study drug 12 hours±30 minutes after prior dose, preceded by ≧2 hours fast.
(§3) Obtain pre-dose fasting blood samples for hematology determinations. Obtain pre-dose fasting blood samples for serum chemistry determinations. […] Collect blood samples (2 mL heparinized) for LTB4 at 24 hours after the first study drug administration; 4 mL blood will be collected at this time point in the Single Dose Phase. Collect ‘spot’ urine sample for LTE4 at 24 and 36 hours after first study drug administration.
(§4) Obtain pre-dose blood samples (5 mL EDTA and 2 mL heparinized) for PK and LTB4. Collect pre-dose urine for LTE4. Administer study drug (last dose of drug). […] Collect blood samples (2 mL heparinized) for LTB4 at 0.5, 1, 2, 3, 4, 6, 8, and 12 hours. Collect urine for LTE4 for the following separate intervals: 0-3, 3-6, 6-9, and 9-12 hours after study drug administration.
(§5) Record vital signs 24 hours after Day 11 study drug administration. […] Collect blood sample (4 mL heparinized) for LTB4 at 24 hours after Day 11 study drug administration. Collect ‘spot’ urine sample for LTE4 at 24 hours after Day 11 study drug administration.
(§6) Whole blood ionophore-stimulated leukotriene LTB4 and urinary LTE4 production were assayed by ELISA and mass spectrometry, respectively.

[2] = tested on: whole blood ionophore-stimulated leukotriene LTB4; experiment: Phase 1 study, whole blood ionophore-stimulated LTB4; format: in vivo, human; details: clinical trial summary
Procedure: as §1, §2, §3, §4, §5, §6

[3] = tested on: CYP2C9; details: tested at 10 μM; diclofenac substrate
[4] = Aqueous solubility determination (thermodynamic solubility); details: for Appearance of mixture after equilibration for 24 hours: suspended in 0.25 mL of water, 25° C.; for pH of saturated solution / Concentration of filtrate (as mg/ml of free base): water, equilibrated at 25° C. for 24 hours; for Concentration of filtrate (as mg/ml of free base): HPLC
[5] = Gravimetric Vapor Sorption (GVS); details: 25° C.; for hygroscopicity in words: GVS; for total weight change: between 0% RH and 90% RH
[6] = tested on: allergen-induced early and late phases of lung-volume decline; details: clinical trials / allergen-challenge studies; cited from earlier work
[7] = Storage stability of polymorphs; format: physicochemical; details: for change after 1 week storage (crystallinity / x-ray powder diffraction pattern, colour): 1 week at 40° C. and 75% RH
[8] = tested on: chronic asthma; details: chronic asthma studies; cited from earlier work
[9] = pH solubility profile; format: physicochemical; details: about 25° C.
[10] = Cycle 1, Scan 1, Adsorption, % RH load to 40
[11] = Cycle 1, Scan 2, Adsorption, % RH 0 to 40
[12] = Cycle 1, Scan 2, Adsorption, % RH 40 to 90
[13] = Cycle 1, Scan 2, Desorption, % RH 90 to 0
[14] = Cycle 2, Scan 3, Adsorption, % RH 40 to 90
[15] = Cycle 2, Scan 4, Adsorption, % RH 0 to 40
[16] = Cycle 2, Scan 4, Desorption, % RH 90 to 0

## COc1ccc(-c2ccc(Cn3c(CC(C)(C)C(=O)O)c(SC(C)(C)C)c4cc(OCc5ccccn5)ccc43)cc2)cn1
[1]
  effect on LTE4 levels in humans, in words: lowers
[2]
  effect on LTB4 levels in humans, in words: lowers

## COc1ccc(-c2ccc(Cn3c(CC(C)(C)C(=O)O)c(SC(C)(C)C)c4cc(OCc5ccccn5)ccc43)cc2)cn1 [3-[5-(pyridin-2-ylmethoxy)-3-(2-methyl-2-propylthio)-1-[4-(2]
[3]
  CYP2C9 induction in words: not an inducer

## COc1ccc(-c2ccc(Cn3c(CC(C)(C)C(=O)O)c(SC(C)(C)C)c4cc(OCc5ccccn5)ccc43)cc2)cn1 [Crystalline Free Acid]
[4]
  Appearance of mixture after equilibration for 24 hours: Suspension
  pH of saturated solution: 7.88
  Concentration of filtrate (as mg/ml of free base): 0.0019 mg/mL
[5]
  stability to changes in humidity (XRPD after GVS experiment): stable to changes in humidity
[5]; Cycle 1, Scan 1, Adsorption, % RH load to 40, listed as crystalline 3-[5-(pyridin-2-ylmethoxy)-3-(2-methyl-2-propylthio)-1-[4-(2-methoxy)
  % weight change: 0.00%
[5]; Cycle 1, Scan 2, Adsorption, % RH 0 to 40, listed as crystalline 3-[5-(pyridin-2-ylmethoxy)-3-(2-methyl-2-propylthio)-1-[4-(2-methoxy)
  % weight change: 0.07%
[5]; Cycle 1, Scan 2, Adsorption, % RH 40 to 90, listed as crystalline 3-[5-(pyridin-2-ylmethoxy)-3-(2-methyl-2-propylthio)-1-[4-(2-methoxy)
  % weight change: 0.34%
[5]; Cycle 1, Scan 2, Desorption, % RH 90 to 0, listed as crystalline 3-[5-(pyridin-2-ylmethoxy)-3-(2-methyl-2-propylthio)-1-[4-(2-methoxy)
  % weight change: −0.42%
[5]; Cycle 2, Scan 3, Adsorption, % RH 40 to 90, listed as crystalline 3-[5-(pyridin-2-ylmethoxy)-3-(2-methyl-2-propylthio)-1-[4-(2-methoxy)
  % weight change: 0.29%
[5]; Cycle 2, Scan 4, Adsorption, % RH 0 to 40, listed as crystalline 3-[5-(pyridin-2-ylmethoxy)-3-(2-methyl-2-propylthio)-1-[4-(2-methoxy)
  % weight change: 0.08%
[5]; Cycle 2, Scan 4, Desorption, % RH 90 to 0, listed as crystalline 3-[5-(pyridin-2-ylmethoxy)-3-(2-methyl-2-propylthio)-1-[4-(2-methoxy)
  % weight change: −0.40%
[5]; listed as Crystalline 3-[5-(pyrid-2-ylmethoxy)-3-(2-methyl-2-propylthio)-1-[4-(2-methoxypy)
  hygroscopicity in words: not hygroscopic

## O=C(O)[C@@H](c1ccc(OCc2ccc3ccccc3n2)cc1)C1CCCC1 [BAYX-1005, (R)-2-[4-(quinolin-2-yl-methoxy)phenyl]-2-cyclopentyl acetic acid]
[6]
  efficacy in words: shown efficacy

## COc1ccc(-c2ccc(Cn3c(CC(C)(C)C(=O)O)c(SC(C)(C)C)c4cc(OCc5ccccn5)ccc43)cc2)cn1 [Form C]
[4]
  aqueous solubility compared between forms: more soluble than Form B and the crystalline free acid
  Appearance of mixture after equilibration for 24 hours: Fine Suspension
  pH of saturated solution: 10.05
  Concentration of filtrate (as mg/ml of free base): >10 mg/mL
[5]
  stability to changes in humidity (XRPD after GVS experiment): stable to changes in humidity
  hygroscopicity in words: hygroscopic
  total weight change: 16%
[5]; [10]
  % weight change: −0.37%
[5]; [11]
  % weight change: 1.98%
[5]; [12]
  % weight change: 13.83%
[5]; [13]
  % weight change: −16.23%
[5]; [14]
  % weight change: 14.52%
[5]; [15]
  % weight change: 2.01%
[5]; [16]
  % weight change: −16.51%
[7]
  change after 1 week storage (crystallinity / x-ray powder diffraction pattern, colour): No change
[7]; 5° C., 25° C./60% RH and 40° C./75% RH for at least two months
  physical and chemical stability: physically and chemically stable

## CC(C)(C)Sc1c(CC(C)(C)C(=O)O)n(Cc2ccc(Cl)cc2)c2ccc(OCc3ccc4ccccc4n3)cc12 [MK-0591, 3-[1-(4-chlorobenzyl)-3-(tert-butylthio)-5-(quinolin-2-ylmethoxy)indol-2-yl]-2,2-dimethyl propanoic acid]
[6]
  efficacy in words: shown efficacy
[8]
  efficacy in words: shown efficacy

## CC(C)c1ccc2c(c1)c(SC(C)(C)C)c(CC(C)(C)C(=O)O)n2Cc1ccc(Cl)cc1 [MK-866, 3-[1-(4-chlorobenzyl)-3-(tert-butylthio)-5-(isopropyl)-indol-2-yl]-2,2-dimethyl propanoic acid]
[6]
  efficacy in words: shown efficacy

## COc1ccc(-c2ccc(Cn3c(CC(C)(C)C(=O)O)c(SC(C)(C)C)c4cc(OCc5ccccn5)ccc43)cc2)cn1 [Form B]
[9]; pH about 1.1
  Concentration (mg/mL): about 0.690 mg/mL
[9]; pH about 4.9
  Concentration (mg/mL): about 0.0594 mg/mL
[9]; pH about 8.8
  Concentration (mg/mL): about 0.00573 mg/mL
[9]; pH about 9.2
  Concentration (mg/mL): about 9.80 mg/mL
[9]; pH about 9.8
  Concentration (mg/mL): about 53.1 mg/mL
[9]; pH about 10.4
  Concentration: >70000 µg/mL
[4]
  Appearance of mixture after equilibration for 24 hours: Fine Suspension
  pH of saturated solution: 9.95
  Concentration of filtrate (as mg/ml of free base): 5.4 mg/mL
[5]
  stability to changes in humidity (XRPD after GVS experiment): stable to changes in humidity
  hygroscopicity in words: very hygroscopic
  total weight change: 26%
[5]; [10]
  % weight change: −1.54%
[5]; [11]
  % weight change: 3.73%
[5]; [12]
  % weight change: 20.92%
[5]; [13]
  % weight change: −25.51%
[5]; [14]
  % weight change: 20.72%
[5]; [15]
  % weight change: 3.66%
[5]; [16]
  % weight change: −24.45%
[7]
  change after 1 week storage (crystallinity / x-ray powder diffraction pattern, colour): loses its crystallinity and the colour changes to yellow
[7]; conditions not stated
  physical and chemical stability: physically and chemically stable
